# Test results as given in patent US20120232158A1, “METHODS OF TREATING HYPERACIDIC DISORDERS” (Yale Univeristy, priority 2008, published 2012).
# Entries after “also recorded” stand apart in the source; their conditions may differ.
# Experiments:
# Type in all cases: cell-based
# [1] = tested on: gastric glands (gastric parietal cells); assay: Acid secretion by superfused gastric glands isolated from control Casr+/+; Gcm2−/− mice (rate of recovery after acid load, BCECF); conditions: FIG. 1
# Procedure: (§1) Male (Casr^+/+; Gcm2^−/−) or CaSR knockout (Casr^−/−; Gcm2^−/−) mice weighing 22-27 grams (upper panel) or male Sprague-Dawley rats weighing 220-275 grams (lower panel) were fasted with ad lib access to water for 18 hours prior to experimentation. The animals were exposed to an overdose of isofluorane and the stomach was removed by a total gastrectomy. The corpus was removed from the stomach and sectioned at 4° C. All mice were generated at Yale University from a breeding colony. Male Sprague-Dawley rats were purchased from Charles River Laboratories Inc. (Wilmington, Mass.). All animals were cared for according to the standard protocols of the Yale University Animal Care and Use Committee.
# (§2) The HEPES-Ringer solution contained (in mmol/L): NaCl 125; KCl 5; MgCl2 0.5; HEPES 22, CaCl2 0.1 or 1.6; glucose 10, pH=7.4. […]
# (§3) Individual gastric glands were hand dissected and transferred to the stage of an inverted microscope where they were loaded with the intracellular pH marker BCECF. […] The rate of recover was then calculated in the presence or absence of the calcimimetic Compound A at either 10 or 100 nM concentration.
# (§4) The rate of recovery in the absence of Na was recorded for each parietal cell and then summated and the mean ±SEM of the data for each gland and then for each animal determined. […] The recovery rates are determined as the rate of recovery following an acid load. […]
# [2] = tested on: gastric glands (gastric parietal cells); assay: Acid secretion by superfused gastric glands isolated from Sprague-Dawley rats (rate of recovery after acid load, BCECF); conditions: FIG. 1
# Procedure: as §1, §2, §3, §4
# [3] = tested on: gastric glands (gastric parietal cells); assay: Acid secretion by superfused gastric glands of CaSR knockout (Casr−/−; Gcm2−/−) mice; conditions: glands from Casr−/−, FIG. 2; for acid secretion stimulated by natural secretagogue: 100 μM, Gcm2−/− mice
# Procedure: as §1
# The HEPES-Ringer solution contained (in mmol/L): NaCl 125; KCl 5; MgCl2 0.5; HEPES 22, CaCl2 0.1 or 1.6; glucose 10, pH=7.4. The solution was bubbled with 100% O2. 2′,7′-bis′(carboxyethyl)-5-(6)-carboxyfluorescein (BCECF) from Invitrogen (Seattle, Wash., USA) and stock solutions were prepared in dimethyl sulphoxide (DMSO).
# (§5) Individual gastric glands were hand dissected and transferred to the stage of an inverted microscope where they were loaded with the intracellular pH marker BCECF. Once loaded with the dye the glands were superfused with normal HEPES Ringer solution at 37° C. and at a pH of 7.4 for 5 minutes. The glands were then challenged with 20 mM NH4Cl and 0 mM Na to induce an acid load within the cell. The rate of recover was then calculated in the presence or absence of the calcimimetic Compound A at either 10 or 100 nM concentration.
# (§6) The rate of recovery in the absence of Na was recorded for each parietal cell and then summated and the mean ±SEM of the data for each gland and then for each animal determined. […] The recovery rates are determined as the rate of recovery following an acid load. This rate determines how fast the cell can extrude protons and provides a measure of the activity of the gastric H,K-ATPase proton pump.
# Gastric acid secretion is measured in Casr^−/−; Gcm2^−/− mice that lack a functional CaSR.
# [4] = tested on: gastric glands (gastric parietal cells); assay: Secretagogue (histamine) induced acid secretion in superfused gastric glands from Sprague-Dawley rats; conditions: rat glands treated with secretagogue (histamine) first (bars B, C, D); FIG. 6
# Procedure: The HEPES-Ringer solution contained (in mmol/L): NaCl 125; KCl 5; MgCl2 0.5; HEPES 22, CaCl2 0.1 or 1.6; glucose 10, pH=7.4. The solution was bubbled with 100% O2. 2′,7′-bis′(carboxyethyl)-5-(6)-carboxyfluorescein (BCECF) from Invitrogen (Seattle, Wash., USA) and stock solutions were prepared in dimethyl sulphoxide (DMSO). […]
# [5] = tested on: gastric glands (gastric parietal cells); assay: Secretagogue (acetyl choline) induced acid secretion in mouse gastric glands with functional CaSR; conditions: 100 μM acetyl choline, calcilytic at 10 or 100 nM, mice with functional CaSR (Casr+/+; Gcm2−/−), FIG. 3
# [6] = tested on: gastric glands (gastric parietal cells); assay: Acid secretion by superfused gastric glands from mice with constitutively active gastric H,K-ATPase proton pump; conditions: mice with functional CaSR and constitutively active H,K-ATPase; FIG. 5
# Procedure: as §5, §6
# These mice have a mutation in the gastric H,K-ATPase proton pump that renders the pump constitutively active.
compound,measurement,setting,value
"COc1cccc(C(C)NCCCc2ccccc2Cl)c1 (stereo not drawn) [Compound A, 3-(2-chlorophenyl)-N-(1-(3-(methyloxy)phenyl)ethyl)-1-propanamine]",concentration dependence of the effect on acid secretion,[1],concentration dependent
same,concentration dependence of the effect on acid secretion,[2],concentration dependent
same,effect on basal acid secretion,[3]; Gcm2−/− mice lacking functional CaSR,unable to increase acid secretion
same,effect on secretagogue induced acid secretion,[4],decreased acid secretion
"CC(C)(Cc1ccc2ccccc2c1)NCC(O)COc1cccc(Cl)c1C#N (stereo not drawn) [Compound B, 2-chloro-6-(2-hydroxy-3-(2-methyl-1-(naphthalen-2-yl)propan-2-ylamino)propoxy)benzonitrile]",inhibition of secretagogue induced acid secretion,[5],inhibition of acid secretion in a concentration dependent fashion
same,inhibition of secretagogue induced acid secretion,[5]; listed as compound B,reduces acid secretion in a dose-dependent manner
same,inhibition of acid secretion,[6],suppresses gastric acid secretion in a concentration-dependent fashion; also recorded: reduce acid secretion
C[N+](C)(C)CCOC(N)=O [carbachol],acid secretion stimulated by natural secretagogue,[3],able to increase acid secretion; also recorded: increases acid secretion
NCCc1c[nH]cn1 [histamine],acid secretion stimulated by natural secretagogue,[3],able to increase acid secretion; also recorded: increases acid secretion
